Laboratory results taken from publication PMC11211441, “Distributable, metabolic PET reporting of tuberculosis” (Nature Communications, 2024).

What was measured:
[1] = Detection/stability of [19F]FDT in human plasma; type: in vitro ADME; details: spiked human plasma, LC-MS
Experimental: FDT standards were prepared in human plasma (Sigma Aldrich), whereby 20 μL plasma samples were spiked with various known concentrations of [^19F]FDT i.e. 10 μM, 20 μM, 40 μM, 120 μM, 160 μM, and 300 μM in 1.5 ml Eppendorf tube and diluted with up to 50% acetonitrile solution. Samples were vortexed for 1 min and centrifuged at 13000 rpm (15871 x g) for 10 min and supernatant was analyzed directly by LC-MS using LC method 2.
Figure S35. Detection of [19F]FDT for Assessment of Stability in Human Plasma
A) Experimental set-up of the sample preparation. Commercially available human plasma samples were spiked with known concentrations of [19F] FDT, plasma proteins were then precipitated by adding up to 50% of MeCN solution and after centrifugation the samples were analysed by LC-MS. Panel A created with BioRender.com, released under a Creative Commons Attribution-NonCommercial-NoDerivs 4.0 International license. B) [19F]FDT standard sample analysed by LC-MS method 2 with the retention time of 6.5 min. C) LC-MS analysis of plasma sample spiked with known amount of FDT showing the similar retention […]
efficient detection. D) Calibration curve of plasma samples when spiked with FDT concentrations from 10 µM – 300 µM with r2 = 0.998 and E) Further calibration curve showing instrument sensitivity down to > 390 nM for detection of FDT ( r2 = 0.998 ). […]

[2] = [19F]FDT in vivo stability in mice (plasma/urine LC-MS, 19F NMR); details: mice (n = 5), LC-MS and 19F-NMR
Experimental: For initial in vivo study, six white mice, CD1, male, weighing between 22–26 grams, were used. Two concentrations of [^19F]FDT (500 μM and 50 μM, final concentration in the blood) were injected into the mice, through the tail vein injection. Prior to injection, each mouse was pre-bled (100 μL) and control samples were obtained. […] Samples were spun at 13000 rpm (15871 x g) for 10 min and the supernatant (plasma) was used for further analysis. 200 μL of plasma sample was transferred into fresh 1.5 mL Eppendorf tube and diluted with equal amount of acetonitrile to precipitate out blood plasma protein and other macromolecules. Samples were further spun at 13000 rpm (15871 x g) for 5 min.
In order to determine [^19F]FDT metabolism in vivo, we assessed concentration vs time in two mammalian species: common marmosets and C57BL/6 mice. For marmosets weighing between 290.3–340.3 g, 20 mg of sterile-filtered FDT in PBS was injected IV (n = 3) and ~200 μL blood samples were taken from the femoral vein at 0 min, 5 min, 30 min, 60 min, 90 min and 180 min post injection. […]
A, B) 20 mg [19F]FDT was injected into marmosets (A, n=3 biological replicates, each measured in duplicate) and 5 mg FDT injected into mice (B, n=5 biological replicates, each measured in triplicate). […]
[19F]FDG was detected, consistent with the only low levels of metabolism seen with [18F]FDT in rabbits (see Figure S3G). […]

Question: With `OC[C@H]1O[C@H](O[C@H]2O[C@H](CO)[C@@H](O)[C@H](O)[C@H]2F)[C@H](O)[C@@H](O)[C@@H]1O` [[^19F]FDT] as the molecule, how does the “stability in human plasma” value [1] read?
Answer: no immediate degradation or apparent sequestration

Question: What about the “degradation in plasma / in vivo” value [2] of the same molecule?
Answer: no detectable degradation

Question: And the “degradation in plasma / in vivo” value ([2]; listed as [19F]FDT)?
Answer: no degradation
